These results are taken from patent US8987201B2, “Black bear parathyroid hormone and methods of using black bear parathyroid hormone” (Michigan Technological University, priority 2009, dated 2015).

Marks after values point to notes of the source that are not given here.

For series [1], the system named is men and women with age-related osteoporosis. The following applies: 20-30% of cortical and cancellous bone lost; cited from earlier work.
The test system of series [2] is rats. The following applies: cited from earlier work.
For series [3], the system named is Male Swiss-Webster mice. Briefly: Cortical bone dynamic histomorphometry in the femur (calcein labels). Conditions: femoral midshaft, 2.5 nmol/kg s.c., 8 weeks, SD in parentheses. The series is classed as in vivo, mouse. The text has this:
(§1) All handling procedures and experiments were approved by the Michigan Technological University Institutional Animal Care and Use Committees. Male Swiss-Webster mice were obtained from a commercial breeder (Harlan, Indianapolis, Ind.). All animals were maintained on a 12-h light/12-h dark cycle, and were permitted free access to water and food containing 0.95% calcium (Purina Rodent Diet #5001).
(§2) In the first experiment, 11 wk old mice received daily (5 days/week) subcutaneous injections of 2.5 nmol/kg PTH 1-34 (hPTH 1-34 or bbPTH 1-34) or acidic saline vehicle (0.15 M NaCl+0.001 N HCl) for 8 weeks (n=10 mice/group). In the second experiment, 12 wk old mice received daily (5 days/week) subcutaneous injections of 2.5 nmol/kg PTH 1-84 (hPTH 1-84 or bbPTH 1-84) or acidic saline vehicle for 8 weeks (n=10 mice/group). All PTH- and vehicle-treated animals received subcutaneous injections of calcein at a dosage of 10 mg/kg on days 12 and 3 before death to label mineralizing bone surfaces. Twenty-four hours following the last treatment injection, mice were sacrificed by carbon dioxide asphyxiation. Right femurs were fixed in 10% neutral buffered formalin. Left femurs were wrapped in 0.15M saline soaked gauze and stored at −20 deg C. Left tibias were stored in 70% ethanol at 4 deg C.
(§3) Following the bending test, the left femoral diaphyses were ashed in a furnace to determine mineral content (ash fraction). Right femoral diaphyses were embedded in methyl methacrylate and sectioned with a diamond saw to expose the midshaft cross-section. Images of the midshaft cross-sections were captured using a digital camera (Spot Insight QE, Diagnostic Instruments Inc., Sterling Heights, Mich.), and Scion Image analysis software (Scion Corporation, Frederick, Md.) was used to calculate the periosteal area (Ps.Ar), cortical area (Ct.Ar), and endosteal area (Es.Ar) for each sample. Cortical bone thickness (Ct.Th) was calculated in 0.1 mm increments for each anatomical quadrant and for the entire cross-section using image analysis software (Bioquant Osteo, Nashville, Tenn.). Thin sections from the midshaft of the right femur were ground to a thickness of 50 μm and mounted on glass slides. Images of calcein labels were captured at 100× magnification and periosteal and endosteal mineral apposition rates (Ps.MAR and Es.MAR, respectively) and mineralizing surfaces (Ps.MS/BS and Es.MS/MS) were quantified (Bioquant) for each femur.
(§4) All bone geometrical, architectural, and mineral properties were normalized by body mass to account for potential variation in animal size (31-33). Trabecular bone properties quantified by micro-computed tomography were compared by ANOVA between vehicle, bear, and human PTH-treated mice within each study (PTH 1-34 or PTH 1-84). The microCT parameters were not directly compared between the PTH 1-34 and PTH 1-84 studies because analyses were conducted on different microCT machines. For all other bone properties, all six experimental groups (from both the PTH 1-34 and PTH 1-84 studies) were compared with ANOVA and Fisher's PLSD. A significance of p<0.05 was used for all comparisons.

Series [4] deals with Male Swiss-Webster mice. As to the kind of experiment: Cortical bone mineral content (ash fraction) and geometrical properties of the femur. The class given is in vivo, mouse. Conditions: femoral midshaft, 2.5 nmol/kg s.c., 8 weeks, normalized by body mass, SD in parentheses.
Description: as §1, §2, §3, §4

For series [5], the system named is human fetal osteoblasts (hFOB). Briefly: Serum starvation cell death in human fetal osteoblasts (trypan blue). The series is classed as cell-based. Conditions: 100 nM for 1 hour before serum starvation for 24 hours, preliminary studies, p<0.0001. On the procedure: All PTH peptides used in the current study attenuated apoptotic signaling induced by serum starvation in vitro (FIG. 19). bbPTH 1-34 reduced apoptotic signaling in pre-osteoblastic cells more than human PTH (FIG. 19). Recently, we found similar results with preliminary studies in human fetal osteoblasts (hFOB). Serum starvation for 24 hours increased cell death in hFOB (confirmed via trypan blue staining), but pretreatment of hFOB cells with 100 nM PTH 1-34 or 1-84 for 1 hour before starvation reduced percent cell death (percentage change in cell death compared to vehicle pretreatment, hPTH 1-34: −18%, bbPTH 1-34: −25%, hPTH 1-84: −17%, bbPTH 1-84: −21%; p<0.0001; data not shown). […] However, although bbPTH 1-84 was less anti-apoptotic than bbPTH 1-34 and hPTH 1-34 in vitro (FIG. 19) it caused the greatest increases in cortical and trabecular bone mass in the in vivo studies (Table 1, Table 2).

Series [6] deals with procollagen-1 mRNA. The following applies: Nasu et al., 1998; cited from earlier work.
For series [7], the system named is MC3T3 subclone 4 cells. Briefly: PTH attenuation of serum-starvation induced caspase-3/7 activity. The class given is cell-based, mouse. The following applies: all concentrations pooled; bbPTH 1-34 vs hPTH 1-34 p=0.006, vs either PTH 1-84 p≦0.018; bbPTH 1-84 vs hPTH 1-84 p=0.090. Here is the method:
MC3T3 subclone 4 cells (ATCC, CRL-2593) were maintained in standard culture media (89% alpha-minimum essential media, 1% penicillin/streptomycin, and 10% FBS) at 37° C. in 5% CO2. Cells were not used beyond passage 30.
MC3T3 cells were seeded at a density of 20,000 cells/well in 96-well plates and allowed to attach overnight. Culture media was then aspirated and replaced with 100 μl of culture media containing 10% FBS and either vehicle (PBS) or PTH (10-100 nM) for one hour, after which media was aspirated and cells were washed with PBS to remove residual serum. To induce apoptosis, cells were incubated in control or serum-free media for 6 hours. Replacement media contained 89% alpha-minimum essential media, 1% penicillin/streptomycin, and either 10% FBS (control media) or 0% FBS (starvation media). After starvation, media was aspirated, cells were washed with PBS, and 50 μl of fresh PBS was added to each well. Caspase-3/7 activity was determined by cleavage of a DEVD substrate (Caspase-Glo 3/7 Assay, #G8093, Promega Corporation). Measured luminescence values were fit to a standard curve prepared with known concentrations of recombinant human caspase-3 (#SE-169, BIOMOL Research Laboratories Inc.). Five wells of each treatment were run per 96-well plate, and procedures were repeated on a minimum of 10 plates. […]

Series [8] has as its system Male Swiss-Webster mice. As to the kind of experiment: Trabecular bone structure and mineralization in the proximal tibia (micro-computed tomography). The class given is in vivo, mouse. The following applies: PTH 1-84 study: 12 wk old mice, 8 weeks, proximal tibia, normalized by body mass.
Description: as §1, §2
Trabecular bone architecture and mineralization were evaluated in the left proximal tibial metaphysis (0.7 mm distal to the growth plate) using micro-computed tomography. Tibias from experiment 1 were scanned on a μCT35 scanner (Scanco Medical AG, Basserdorf, Switzerland) at 3.5 μm (high) resolution. Tibias from experiment 2 were scanned on a μCT40 scanner (Scanco Medical AG, Basserdorf, Switzerland) at 7 μm (high) resolution. Bones were scanned in 70% ethanol. Trabecular bone volume fraction (BV/TV, %), trabecular number (Tb.N, mm^−1), trabecular thickness (Tb.Th, m), trabecular separation (Tb.Sp, m), trabecular apparent mineral density (App.Mn.Dn, mgHA/cm^3) and trabecular tissue mineral density (Mat.Mn.Dn, mgHA/cm^3) were computed using the manufacturer's software.
as §4

Series [9] concerns ovariectomized (OVX) Sprague-Dawley rats. Briefly: In vivo effects of human PTH1-84 and bear PTH1-84 in ovariectomized rats. Also noted: species or system rat. Conditions: 2.5 nmol/kg s.c., eight weeks. On the procedure:
Thirty female, 2.5-month old Sprague-Dawley rats were ovariectomized (OVX) at the commercial breeding facility The OVX animals were randomly assigned into 3 groups of 10 animals per group for further experiments.
Six weeks after the OVX procedure, the rats were injected subcutaneously for an eight-week period (daily for five days per week) with vehicle (saline) or 2.5 nmol/kg bear or human PTH1-84. Animals were euthanized 24 hours after the last injection. Samples were obtained from the euthanized animals for further analysis.
Femur bending strength and proximal tibia trabecular architecture were investigated as described in Example 12.

For “ALX1-11: recombinant human PTH 1-84 (NPS Pharmaceuticals), under consideration for approval by the FDA”, the “bone recovered during the suggested treatment regimen” value in [1] is given as 8%. In [2] (long-term usage), the osteosarcoma in rats result is “generates osteosarcoma”.

On to human PTH1-84 [hPTH 1-84], for which, in [3], the “Endosteal MAR” value is 0.62 ( ).39), the “Endosteal MS/BS” value is recorded as 32.1 (19.4), the “Periosteal MAR” value is 0.60 (0.40) and the “Periosteal MS/BS” value is recorded as 20.2 (16.7). In addition, in series [4], the Ct.Ar was 29.0 (3.7) mm^2/kg, the Ct.Th is 3.41 (0.59)^a mm/kg, the Es.Ar was 25.6 (3.3) mm^2/kg and the Ps.Ar is 54.6 (4.4)^b,c mm^2/kg. Further, the “percentage change in cell death compared to vehicle pretreatment” value in series [5] is reported as −17%. For the same substance, the “production of procollagen-1 mRNA” value in [6] was “does not”. Further, the “caspase-3/7 activity, comparison between peptide groups” value in series [7] is reported as “lower levels of apoptosis”. In series [8] (2.5 nmol/kg s.c. daily 5 days/week), this substance registered a BV/TV of 1.34 %/kg. Besides, in series [8] (2.5 nmol/kg s.c.), the “App. Mn. Dn” value is recorded as 2513 ^b mgHA/(cm^3*kg), the “Mat. Mn. Dn.” value is reported as 29810 mgHA/(cm^3*kg), the “Tb. N” value is recorded as 98.7 1/mm*kg and the “Tb. Sp” value is 9.57 mm/kg. Moreover, the “Tb. Th” value in series [8] (2.5 nmol/kg s.c.) turned out to be 1.26 mm/kg. For the same substance, the “rate of carcinogenicity compared to human PTH 1-34” value in series [2] (rat, in vivo) was “lower rate of carcinogenicity”. In series [9], the “bone volume fraction / trabecular bone volume” value is “equivalently increase”.
